Assay results as given in ChEMBL document CHEMBL1144890, “3D QSAR analyses-guided rational design of novel ligands for the (alpha4)2(beta2)3 nicotinic acetylcholine receptor” (J Med Chem, 2003).
pKi: −log10 of the molar value.

biological target: Neuronal acetylcholine receptor; alpha4/beta2 (Rattus norvegicus, UniProt P09483+P12390); test: In vitro binding affinity towards (alpha-4)2(beta-2)3 neuronal nicotinic acetylcholine receptor in P2 membrane fractions of rat forebrain; type: cell membranes
Sequence (P09483 whole entry): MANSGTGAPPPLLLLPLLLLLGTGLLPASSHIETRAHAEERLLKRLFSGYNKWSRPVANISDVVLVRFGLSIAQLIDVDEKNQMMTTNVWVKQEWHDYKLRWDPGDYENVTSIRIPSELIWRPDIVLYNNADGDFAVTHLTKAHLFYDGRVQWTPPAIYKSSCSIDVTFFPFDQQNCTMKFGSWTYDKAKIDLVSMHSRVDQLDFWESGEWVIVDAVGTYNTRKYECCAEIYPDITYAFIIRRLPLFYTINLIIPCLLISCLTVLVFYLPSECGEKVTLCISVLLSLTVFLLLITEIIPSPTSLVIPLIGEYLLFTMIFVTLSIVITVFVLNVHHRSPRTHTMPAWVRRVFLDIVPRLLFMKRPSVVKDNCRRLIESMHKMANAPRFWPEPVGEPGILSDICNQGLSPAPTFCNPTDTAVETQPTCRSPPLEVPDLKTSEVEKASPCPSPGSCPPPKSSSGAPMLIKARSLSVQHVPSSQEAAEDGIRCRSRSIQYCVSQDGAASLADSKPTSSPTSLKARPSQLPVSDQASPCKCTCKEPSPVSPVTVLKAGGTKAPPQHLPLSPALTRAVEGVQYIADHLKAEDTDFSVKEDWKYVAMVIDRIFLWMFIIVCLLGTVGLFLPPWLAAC
Sequence (P12390 whole entry): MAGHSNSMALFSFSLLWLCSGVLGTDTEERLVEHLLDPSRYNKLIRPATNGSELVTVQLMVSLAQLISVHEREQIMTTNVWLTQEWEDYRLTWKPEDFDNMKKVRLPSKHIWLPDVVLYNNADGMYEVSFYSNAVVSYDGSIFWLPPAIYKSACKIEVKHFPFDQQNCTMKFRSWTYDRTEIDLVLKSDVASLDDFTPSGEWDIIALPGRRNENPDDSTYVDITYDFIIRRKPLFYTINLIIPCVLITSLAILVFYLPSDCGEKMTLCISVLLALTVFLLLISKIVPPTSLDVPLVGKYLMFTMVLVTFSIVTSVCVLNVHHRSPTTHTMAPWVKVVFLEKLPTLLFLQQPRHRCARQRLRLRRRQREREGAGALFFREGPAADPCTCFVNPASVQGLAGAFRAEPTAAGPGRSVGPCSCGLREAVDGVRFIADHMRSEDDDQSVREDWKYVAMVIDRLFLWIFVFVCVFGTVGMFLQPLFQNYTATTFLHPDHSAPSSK

Compared with `O=c1c(I)cc(I)c2n1CC1CNCC2C1` (centres undefined), `O=c1ccc(I)c2n1CC1CNCC2C1` (centres undefined) is 0.36 log units higher in pKi: 9.28 for the first, 9.64 for the second. The second binds more tightly here.

`CN1C2CC=C(c3ccc(Cl)nc3)C1CC2` (centres undefined) and `CN1C2CC=C(c3cccnc3)C1CC2` (centres undefined) are within 0.2 log units of each other in pKi: 8.05 for the first, 8.02 for the second.

`CN1C2CCC1C(c1ccc(Cl)nc1)C2` (centres undefined) and `CN1C2CCC1C(c1ccc(F)nc1)C2` (centres undefined) are within 0.2 log units of each other in pKi: 10.57 for the first, 10.55 for the second.

Compared with `C1=C(c2cnccn2)CC2CCC1N2` (centres undefined), `C1=C(c2cccnc2)CC2CCC1N2` (centres undefined) is 2.08 log units higher in pKi: 7.51 for the first, 9.59 for the second. The second binds more tightly here.

First: O=c1c(Br)cc(Br)c2n1CC1CNCC2C1 (centres undefined)
Second: O=c1ccc(Br)c2n1CC1CNCC2C1 (centres undefined)
The pKi of the first is 1.54 log units lower: 7.97 for the first, 9.51 for the second.

Going from `CN1C2CCC1CN(c1ccc(Cl)nn1)CC2` (centres undefined) to `CN1C2CCC1CN(c1ccc(Cl)nc1)CC2` (centres undefined), the pKi falls from 9.26 to 9.06 (0.20 log units). The first binds more tightly here.

Going from `CN1C2CCC1CN(c1cncnc1)CC2` (centres undefined) to `CN1C2CCC1CN(c1ccnnc1)CC2` (centres undefined), the pKi rises from 8.68 to 9.28 (0.60 log units).

First: C1=C(c2cnccn2)C2CCC(CC1)N2 (centres undefined)
Second: C1=C(c2cnccn2)C2CCC(C1)N2 (centres undefined)
The pKi of the first is 1.52 log units higher: 7.92 for the first, 6.40 for the second.

Going from `S=c1cccc2n1CC1CNCC2C1` (centres undefined) to `O=c1cccc2n1C[C@@H]1CNC[C@H]2C1` [CYTISINICLINE], the pKi rises from 9.08 to 9.91 (0.83 log units). The second binds more tightly here.

First: c1nncc2c1CC1CCC2N1 (centres undefined)
Second: c1nncc2c1CCC1CCC2N1 (centres undefined)
The pKi of the first is 0.34 log units lower: 7.12 for the first, 7.46 for the second.

Compared with `O=c1ccc(Cl)c2n1CC1CNCC2C1` (centres undefined), `O=c1c(Cl)ccc2n1CC1CNCC2C1` (centres undefined) is 2.05 log units higher in pKi: 8.60 for the first, 10.65 for the second. The second binds more tightly here.

Compared with `C1=C(c2cncnc2)C2CCC(C1)N2` (centres undefined), `C1=C(c2cncnc2)C2CCC(CC1)N2` (centres undefined) is 1.42 log units higher in pKi: 8.43 for the first, 9.85 for the second.

Compared with `Brc1ccc(C2CC3CCC2N3)cn1` (centres undefined), `Ic1ccc(C2CC3CCC2N3)cn1` (centres undefined) is 0.25 log units higher in pKi: 10.35 for the first, 10.60 for the second. The second binds more tightly here.

Compared with `CC(=O)C1=CCC2CCC1N2` (centres undefined), `CN(C)C(=O)C1=CCC2CCC1N2` (centres undefined) is 2.82 log units lower in pKi: 7.03 for the first, 4.21 for the second. The first binds more tightly here.

Compared with `C1=C(c2ccnnc2)C2CCC(CC1)N2` (centres undefined), `C1=C(c2ccnnc2)C2CCC(C1)N2` (centres undefined) is 0.38 log units higher in pKi: 7.72 for the first, 8.10 for the second. The second binds more tightly here.

Compared with `C1=C(c2ccnnc2)CC2CCC1N2` (centres undefined), `C1=C(c2cncnc2)CC2CCC1N2` (centres undefined) is 1.18 log units higher in pKi: 8.00 for the first, 9.18 for the second.

Going from `c1ncc2c(n1)CC1CCC2N1` (centres undefined) to `c1ncc2c(n1)C1CCC(C2)N1` (centres undefined), the pKi falls from 6.17 to < 5.00.

Going from `Clc1nccnc1C1=CC2CCC(C1)N2` (centres undefined) to `Clc1ncc(C2=CC3CCC(C2)N3)cn1` (centres undefined), the pKi rises from 6.68 to 9.15 (2.47 log units). The second binds more tightly here.

Compared with `C1=C(c2cncnc2)C2CCN1CC2`, `C1=C(c2cccnc2)C2CCN1CC2` is 0.21 log units higher in pKi: 7.91 for the first, 8.12 for the second. The second binds more tightly here.

`Clc1ccc(C2=CN3CCC2CC3)cn1` and `CN1C2C=C(c3ccc(Cl)nc3)CC1CC2` (centres undefined) are within 0.2 log units of each other in pKi: 8.64 for the first, 8.81 for the second.

Going from `O=c1c(Br)ccc2n1CC1CNCC2C1` (centres undefined) to `O=c1c(I)ccc2n1CC1CNCC2C1` (centres undefined), the pKi falls from 11.00 to 10.77 (0.23 log units). The first binds more tightly here.

First: CN1C2CC=C(c3cncnc3)C1CC2 (centres undefined)
Second: CN1C2C=C(c3cncnc3)CC1CC2 (stereo in doubt; 33)
The pKi of the first is 0.54 log units higher: 7.90 for the first, 7.36 for the second. The first binds more tightly here.

Going from `CC(=O)C1=CCC2CCC1N2C` (centres undefined) to `CN(C)C(=O)C1=CCC2CCC1N2C` (centres undefined), the pKi falls from 6.92 to 5.70 (1.22 log units).

Compared with `CN(C)C(=S)C1=CCC2CCC1N2` (centres undefined), `CN(C)C(=S)C1=CCC2CCC1N2C` (centres undefined) is lower in pKi: 5.61 for the first, < 4.70 for the second.

Going from `COC(=O)C1=C(c2cccnc2)CC2CCC1N2C` (centres undefined) to `COC(=O)C1=C(c2cncnc2)CC2CCC1N2C` (centres undefined), the pKi rises from 5.31 to 6.67 (1.36 log units). The second binds more tightly here.

Compared with `Clc1ncc(C2=CCC3CCC2N3)cn1` (centres undefined), `Clc1ncc(C2=CCCC3CCC2N3)cn1` (centres undefined) is 1.12 log units higher in pKi: 8.70 for the first, 9.82 for the second.

Compared with `C1=C(c2cccnc2)C2CCC(CC1)N2` (centres undefined), `C1=C(c2cccnc2)C2CCC(C1)N2` (centres undefined) is 1.49 log units lower in pKi: 10.29 for the first, 8.80 for the second.

`Fc1ccc(C2CC3CCC2N3)cn1` (centres undefined) and `c1cncc(C2CC3CCC2N3)c1` (centres undefined) [DESCHLOROEPIBATIDINE] are within 0.2 log units of each other in pKi: 10.55 for the first, 10.59 for the second.

Compared with `Clc1nccnc1C1=CCC2CCC1N2` (centres undefined), `CN1C2CCC1CN(c1cnccn1)CC2` (centres undefined) is 1.20 log units higher in pKi: 5.38 for the first, 6.58 for the second. The second binds more tightly here.

Compared with `CN1C2CCC1C(c1ccc(Br)nc1)C2` (centres undefined), `COC(=O)C1=C(c2ccc(Cl)nc2)CC2CCC1N2C` (centres undefined) is 4.66 log units lower in pKi: 10.44 for the first, 5.78 for the second. The first binds more tightly here.

Compared with `Cc1cc(C2=CCC3CCC2N3C)on1` (centres undefined), `CN1C2C=C(c3cncnc3)CC1CC2` (stereo in doubt; 58) is 1.40 log units higher in pKi: 7.50 for the first, 8.90 for the second. The second binds more tightly here.

First: O=c1c(Cl)cc(Cl)c2n1CC1CNCC2C1 (centres undefined)
Second: CN1CC2CC(C1)c1cccc(=O)n1C2 (centres undefined)
The pKi of the first is 0.36 log units higher: 8.60 for the first, 8.24 for the second. The first binds more tightly here.
